Results taken from patent US20240216355A1, “PHARMACEUTICAL COMPOSITIONS FOR USE IN THE PREVENTION AND TREATMENT OF A DISEASE OR DISORDER CAUSED BY OR ASSOCIATED WITH ONE OR MORE PREMATURE TERMINATION CODONS” (Monte Rosa Therapeutics, Inc., priority 2021, published 2024).
Where two headings read alike, the source gives them in different places.

Experiments:
GSPT1 = target: T1, GSPT1 (Homo sapiens, UniProt P15170+Q96SW2); assay: GSPT1 degradation immunofluorescence assay in CAL-51 cells; assay type: cell-based; conditions: 6 hours treatment
T1 construct: CAL-51 cells were purchased from DSMZ (cat. Number ACC302); host or cells: CAL-51 cells
Description: CAL-51 cells were purchased from DSMZ (cat. Number ACC302), sub-cultured in 90% Dulbecco's MEM (4.5 g/L glucose, Gibco 11965)+10% heat inactivated FBS (BioConcept, 2-01F1361) and incubated at 37° C., 5% CO2. For the assay, imaging microtiterplate Cell Carrier 96 Ultra (Perkin Elmer 6055302) were pre-coated with Fibronectin (Sigma F085, 30 μl at 0.2 μg/ml) in PBS (100p, Gibco 14190) for 45 min at room temperature, rinsed with PBS and CAL-51 cells (30K cells/well) were plated and let to adhere overnight. Cells were treated with compounds typically using a serial dilution ranging from 30 μM to 0.1 nM for 6 hours. Compounds were stored at 10 mM DMSO stocks. Vehicle (DMSO), positive (CC-885, 10 μM) and rescue controls (positive control plus 0.2 μM bortezomib) were also included at this stage. Cells were subsequently rinsed with PBS and fixed in 10% Formalin solution (50p, Sigma HT5011)) for 20 mins at room temperature. Following three consecutive PBS washes (100 μl), cells were permeabilized in 0.1% Triton X-100 in PBS (Sigma 93443, 50 μl) for 15 mins at room temperature. Following three further PBS washes, 50 μl blocking buffer (1% BSA, Sigma A4503, in PBS) was added for 45 min for signal-to-noise reduction. Primary antibody (human GSPT1, Sigma HPA052488) was diluted in blocking buffer (dil.1/300, 35 μl/well) and incubated with the cells overnight at 4° C. After three PBS washes, Alexa-fluor 488 coupled secondary antibodies (Invitrogen, A32731, dil. 1/1000), Alexa-fluor 647-Phalloïdin (Invitrogen, A22287, dil. 1/200) and DAPI (Thermo, #62248, dil.1/1000) were diluted in blocking buffer and incubated with the samples for 2 hours at room temperature. After three final PBS washes, samples were conserved in 100 μl PBS in the dark, until measurement. Image acquisition was performed on the Operetta High-Content Imager (Perkin-Elmer). Fluorescence intensity of Alexa-Fluor 488 (GSPT1), Alexa-Fluor 647 (Actin) and DAPI (Nucleus) were measured. For the determination of GSPT1 DC50 values, a custom algorithm implemented in the PerkinElmer image analysis software Harmony-Acapella@ was developed. After user-defined setting of adjustment parameters, the analysis was run identically without human intervention for all image fields. DAPI staining of the nuclei was used to determine the location of cells using standard nuclei detection modules. Segmentation artifacts were removed by threshold-based filters for area, roundness and intensity. The outline of the cells was determined analogously from the sum of the normalized, smoothed DAPI and Actin channel, starting from each nucleus.
The Alexa-Fluor 488 (GSPT1) signal intensity in each cell was finally measured, in order to obtain a Mean intensity per cell. GSPT1 degradation (DC50) was calculated after normalization to controls and data import in CDD vault Database, using non-linear regression.

[1] = target: T2, Full length wild-type cereblon CRBN (Homo sapiens, UniProt Q96SW2); assay: Fluorescence polarization (FP) assay indicating cereblon binding
T2 construct: Full length wild-type cereblon CRBN (80.0 nM, 10 μL) was incubated in assay buffer
Description: Compound activity was monitored in a fluorescence polarization (FP) homogeneous assay using 1-[5-({2-[2-(2-{[2-(2,6-dioxopiperidin-3-yl)-1,3-dioxo-2,3-dihydro-1H-isoindol-4-yl]oxy}acetamido)ethoxy]ethyl}carbamoyl)pentyl]-3,3-dimethyl-2-[(1E,3E)-5-[(2E)-1,3,3-trimethyl-5-sulfo-2,3-dihydro-1H-indol-2-ylidene]penta-1,3-dien-1-yl]-3H-indol-1-ium-5-sulfonate as a fluorescent probe. Unless otherwise stated, all reagents were purchased from Sigma Aldrich. Enzymatic reactions were conducted in Perkin-Elmer Black 384 well ProxiPlate Plus (catalogue no. 6008269) in 10 μL total volume. Full length wild-type cereblon CRBN (80.0 nM, 10 μL) was incubated in assay buffer containing 20 mM HEPES (pH 8.0), […], 0.5 mM TCEP and 0.05% Tween 20 in the presence or absence of compound (300 nL). Inhibitors were stored as 10 mM DMSO stocks in an inert environment (low humidity, dark, low oxygen, room temperature) using the Storage Pod System. Compounds and DMSO were dispensed using the Echo E5XX (Labcyte Inc. USA) to give concentrations from 300 to 0.937 or 3000 to 9.3 nM in a 12 data point curve. […] Following incubation at room temperature for 30 min, the assay was initiated by dispensing the probe to a final concentration of 5 nM (2.5 nL of a 20 μM stock) using the Echo E5XX. FP was measured after a period of 12 hours using a Pherastar plate reader (BMG Labtech, Germany) exciting at 590 nm and measuring the amount of parallel and perpendicular light at 675 nm. The FP signal was subsequently normalized to the no-compound control (i.e., DMSO). Analysis and IC50 values were derived using Dotmatics (Dotmatics UK) software.

HBE16 cells = assay: Killing activity (EC10) in HBE16 cells after 72 hr; assay type: cell-based, human
[2] = tested on: G542X cystic fibrosis transmembrane conductance regulator (CFTR) nonsense mutation; assay: HaloTag G542X 5×5 NanoLuc reporter assay (CFTR readthrough) in HBE16 cells; assay type: cell-based, human
Description: FIG. 3A, FIG. 3B, and FIG. 3C show the effect of a representative compound of the disclosure on CFTR readthrough: Readthrough of the common G542X cystic fibrosis transmembrane conductance regulator (CFTR) nonsense mutation was carried out in the immortalized human bronchial epithelial cells HBE16. A HaloTag G542X 5×5 NanoLuc reporter assay was established in that cell line containing the CFTR readthrough cassette bearing the G542X codon as well as 5 codons upstream and downstream from the human CFTR sequence. […] The total protein assay (C) indicates no significant decrease of HBE16 cell viability following treated with the representative compound of the disclosure alone or in combination with G418 (y-axis left indicating protein μg/μL, and y-axis right indicating %).
The total protein assay (C) indicates no significant decrease of HBE16 cell viability following treated with the representative compound of the disclosure alone or in combination with ELX-02 (y-axis left indicating protein μg/μL, and y-axis right indicating %).

[3] = compounds 1 to 165, read-out: Activity for GSPT1 degradation (DC50 code)
[4] = compounds 201 to 307, read-out: Activity for GSPT1 degradation (DC50 code)

T2 sequence (Q96SW2 whole entry): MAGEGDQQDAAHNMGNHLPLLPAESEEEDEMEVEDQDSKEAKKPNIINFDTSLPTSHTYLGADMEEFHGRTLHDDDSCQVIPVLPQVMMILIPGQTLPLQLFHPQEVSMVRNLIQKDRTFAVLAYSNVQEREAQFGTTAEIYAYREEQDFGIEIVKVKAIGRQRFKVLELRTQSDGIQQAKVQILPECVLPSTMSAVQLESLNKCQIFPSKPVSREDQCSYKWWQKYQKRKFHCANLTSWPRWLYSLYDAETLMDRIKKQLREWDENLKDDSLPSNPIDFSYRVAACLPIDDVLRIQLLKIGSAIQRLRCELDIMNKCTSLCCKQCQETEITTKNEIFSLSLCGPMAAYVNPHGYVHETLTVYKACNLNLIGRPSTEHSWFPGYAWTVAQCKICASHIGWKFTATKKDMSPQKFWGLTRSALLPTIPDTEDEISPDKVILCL
T1 sequence (P15170 whole entry): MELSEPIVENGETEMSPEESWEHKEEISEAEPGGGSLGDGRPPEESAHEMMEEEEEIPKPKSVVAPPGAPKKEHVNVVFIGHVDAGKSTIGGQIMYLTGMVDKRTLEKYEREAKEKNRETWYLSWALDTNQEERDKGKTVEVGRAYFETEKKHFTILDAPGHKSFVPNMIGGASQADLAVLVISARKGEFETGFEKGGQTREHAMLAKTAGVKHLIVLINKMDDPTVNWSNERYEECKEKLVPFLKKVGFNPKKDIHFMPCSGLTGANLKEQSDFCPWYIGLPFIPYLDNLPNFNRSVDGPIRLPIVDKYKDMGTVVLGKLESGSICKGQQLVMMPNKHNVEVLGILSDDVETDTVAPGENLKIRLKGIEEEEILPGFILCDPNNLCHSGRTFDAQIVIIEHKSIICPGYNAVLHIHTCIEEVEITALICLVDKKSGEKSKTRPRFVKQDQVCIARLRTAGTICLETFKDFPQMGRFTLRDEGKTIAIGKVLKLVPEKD
T1 sequence (Q96SW2 whole entry): as the sequence (Q96SW2 whole entry) above
T1 sequence (Q16531 whole entry partner): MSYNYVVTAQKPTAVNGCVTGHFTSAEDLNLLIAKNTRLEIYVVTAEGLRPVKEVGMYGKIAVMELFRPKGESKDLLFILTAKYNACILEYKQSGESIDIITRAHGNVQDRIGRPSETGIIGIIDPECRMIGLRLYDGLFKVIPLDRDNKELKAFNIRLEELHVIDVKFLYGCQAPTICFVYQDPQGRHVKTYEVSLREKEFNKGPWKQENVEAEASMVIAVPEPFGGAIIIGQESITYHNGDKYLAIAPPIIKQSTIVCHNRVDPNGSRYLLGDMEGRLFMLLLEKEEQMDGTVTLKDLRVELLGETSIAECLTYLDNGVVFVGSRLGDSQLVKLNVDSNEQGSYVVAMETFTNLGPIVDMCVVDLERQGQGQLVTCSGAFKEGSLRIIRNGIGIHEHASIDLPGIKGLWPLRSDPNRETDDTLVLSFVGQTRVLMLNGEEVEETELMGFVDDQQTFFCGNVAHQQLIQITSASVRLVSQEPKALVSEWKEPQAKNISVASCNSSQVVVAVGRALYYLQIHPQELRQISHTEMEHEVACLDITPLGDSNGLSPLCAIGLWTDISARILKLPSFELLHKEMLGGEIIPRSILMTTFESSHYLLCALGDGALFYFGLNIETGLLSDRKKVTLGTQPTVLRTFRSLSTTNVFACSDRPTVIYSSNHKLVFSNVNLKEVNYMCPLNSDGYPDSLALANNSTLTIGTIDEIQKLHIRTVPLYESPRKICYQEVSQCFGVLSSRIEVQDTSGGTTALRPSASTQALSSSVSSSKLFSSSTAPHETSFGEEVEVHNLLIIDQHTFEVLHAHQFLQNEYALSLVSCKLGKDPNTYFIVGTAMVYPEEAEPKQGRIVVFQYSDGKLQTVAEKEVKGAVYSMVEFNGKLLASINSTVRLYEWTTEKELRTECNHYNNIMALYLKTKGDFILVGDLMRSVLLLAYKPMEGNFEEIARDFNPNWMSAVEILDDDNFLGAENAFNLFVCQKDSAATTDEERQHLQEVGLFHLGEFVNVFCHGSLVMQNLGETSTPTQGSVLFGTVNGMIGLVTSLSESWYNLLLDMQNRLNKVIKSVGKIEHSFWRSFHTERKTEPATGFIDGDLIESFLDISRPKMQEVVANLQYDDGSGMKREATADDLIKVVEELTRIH

| Compound | IC50 [1] [nM] | DC50 (GSPT1; [4]) [nM] | further results |
| --- | --- | --- | --- |
| COc1ccc(CCNC(=O)NCc2ccc3c(c2)C(=O)N(C2CCC(=O)NC2=O)C3)cc1 (stereo not drawn) [Compound 51] | < 1100 |  | DC50 (GSPT1; [3]): > 300 nM |
| COc1ccccc1CNC(=O)NCc1ccc2c(c1)C(=O)N(C1CCC(=O)NC1=O)C2 (stereo not drawn) [Compound 60] | < 1100 |  | DC50 (GSPT1; [3]): > 300 nM |
| Cc1c(Cl)cc(NC(=O)NCc2ccc3c(c2)C(=O)N(C2CCC(=O)NC2=O)C3)cc1CN1CC2CCC(C1)O2 (stereo not drawn) [Compound 140] | < 1100 |  | DC50 (GSPT1; [3]): ≤ 100 nM |
| Cc1c(Cl)cc(NC(=O)NCc2ccc3c(c2)C(=O)N(C2CCC(=O)NC2=O)C3)cc1CN1CCN2CCC1C2 (stereo not drawn) [Compound 154] | < 1100 |  | DC50 (GSPT1; [3]): > 300 nM |
| Cc1c(Cl)cc(NC(=O)NCc2ccc3c(c2)C(=O)N(C2CCC(=O)NC2=O)C3)cc1CC1COCCN1C (stereo not drawn) [Compound 160] | < 1100 |  | DC50 (GSPT1; [3]): ≤ 100 nM |
| Cc1c(Cl)cc(NC(=O)OCc2ccc3c(c2)C(=O)N(C2CCC(=O)NC2=O)C3)cc1CN1CCOCC1 (stereo not drawn) [Compound 202] | < 1100 | < 30 |  |
| O=C1CCC(N2Cc3ccc(COC(=O)Nc4cc(CN5CCOCC5)cc(OC(F)(F)F)c4)cc3C2=O)C(=O)N1 (stereo not drawn) [Compound 204] | < 1100 | < 30 |  |
| Cc1ncc(NC(=O)OCc2ccc3c(c2)C(=O)N(C2CCC(=O)NC2=O)C3)cc1Cl (stereo not drawn) [Compound 206] | < 1100 | < 30 |  |
| Cc1cc(C)cc(NC(=O)OCc2ccc3c(c2)C(=O)N(C2CCC(=O)NC2=O)C3)c1 (stereo not drawn) [Compound 208] | < 1100 | < 30 |  |
| Cc1c(Cl)cc(NC(=O)OCc2ccc3c(c2)C(=O)N(C2CCC(=O)NC2=O)C3)cc1CN1CC2CC1CO2 (stereo not drawn) [Compound 213] | < 1100 | < 30 |  |
| O=C1CCC(N2Cc3ccc(COC(=O)Nc4ccc(N5CCCCC5)nc4)cc3C2=O)C(=O)N1 (stereo not drawn) [Compound 215] | < 1100 | < 30 |  |
| Cc1ccc(NC(=O)OCc2ccc3c(c2)C(=O)N(C2CCC(=O)NC2=O)C3)cc1OC(F)F (stereo not drawn) [Compound 224] | < 1100 | < 30 |  |
| Cc1c(CN2CCOCC2)cc(NC(=O)OCc2ccc3c(c2)C(=O)N(C2CCC(=O)NC2=O)C3)cc1OC(F)F (stereo not drawn) [Compound 225] | < 1100 | < 30 |  |
| O=C1CCC(N2Cc3ccc(COC(=O)Nc4ccc(C5CC5)cc4)cc3C2=O)C(=O)N1 (stereo not drawn) [Compound 239] | < 1100 | < 30 |  |
| Cc1c(F)cc(NC(=O)OCc2ccc3c(c2)C(=O)N(C2CCC(=O)NC2=O)C3)cc1CN1CCOCC1 (stereo not drawn) [Compound 241] | < 1100 | < 30 |  |
| CCc1cc(NC(=O)OCc2ccc3c(c2)C(=O)N(C2CCC(=O)NC2=O)C3)cnc1C (stereo not drawn) [Compound 255] | < 1100 | < 30 |  |
| CC1(c2ccc(NC(=O)OCc3ccc4c(c3)C(=O)N(C3CCC(=O)NC3=O)C4)cc2)CC1 (stereo not drawn) [Compound 258] | < 1100 | < 30 |  |
| Cc1c(Cl)cc(NC(=O)OCc2ccc3c(c2)C(=O)N(C2CCC(=O)NC2=O)C3)cc1OC1CCN(C)C1 (stereo not drawn) [Compound 268] | < 1100 | < 30 |  |
| CC1CCCCN1c1ccc(NC(=O)OCc2ccc3c(c2)C(=O)N(C2CCC(=O)NC2=O)C3)cn1 (stereo not drawn) [Compound 277] | < 1100 | < 30 |  |
| CC1(C)COc2cc(NC(=O)OCc3ccc4c(c3)C(=O)N(C3CCC(=O)NC3=O)C4)ccc21 (stereo not drawn) [Compound 283] | < 1100 | < 30 |  |
| Cc1ccccc1-c1ccc(NC(=O)OCc2ccc3c(c2)C(=O)N(C2CCC(=O)NC2=O)C3)cn1 (stereo not drawn) [Compound 286] | < 1100 | < 30 |  |
| COc1ccccc1-c1ccc(NC(=O)OCc2ccc3c(c2)C(=O)N(C2CCC(=O)NC2=O)C3)cn1 (stereo not drawn) [Compound 287] | < 1100 | < 30 |  |
| Cc1cc(NC(=O)OCc2ccc3c(c2)C(=O)N(C2CCC(=O)NC2=O)C3)cnc1-c1ccccc1 (stereo not drawn) [Compound 288] | < 1100 | < 30 |  |
| Cc1ncc(NC(=O)OCc2ccc3c(c2)C(=O)N(C2CCC(=O)NC2=O)C3)cc1OC(F)(F)F (stereo not drawn) [Compound 291] | < 1100 | < 30 |  |
| O=C1CCC(N2Cc3ccc(COC(=O)Nc4ccc5c(c4)OCCC5)cc3C2=O)C(=O)N1 (stereo not drawn) [Compound 292] | < 1100 | < 30 |  |
| O=C1CCC(N2Cc3ccc(COC(=O)Nc4cc(OCCN5CCOCC5)cc(OC(F)(F)F)c4)cc3C2=O)C(=O)N1 (stereo not drawn) [Compound 306] | < 1100 |  |  |
| C[C@@H](N)[C@H]1O[C@@H](O[C@@H]2[C@@H](O)[C@H](N)C[C@H](N)[C@H]2O[C@H]2O[C@H]([C@@H](C)O)[C@@H](O)[C@H](O)[C@H]2N)[C@H](O)[C@@H]1O [ELX-02] |  |  | EC10 (concentration resulting in 10% killing activity) (HBE16 cells): 85000 nM; EC50 [2]: 250000 nM; EC10 (readthrough activity, NanoLuc) ([2]; concentration used in combination): 85000 nM |
